Results on six compounds are retold here after US12247064B2, “Modified ligand-gated ion channels and methods of use” (Howard Hughes Medical Institute, priority 2017, dated 2025).

For one assay, the target named is T1, α7^R21D,E41R-5HT3 (Homo sapiens, UniProt P36544, E41R/M226I/R27D/T225I).
T1 construct: expressed in transfected cells; host or cells: HEK cells
Nature of the assay: Whole cell recordings in HEK cells expressing charge reversal channel. The settings on record: V5 epitope tag. Format: cell-based.

For assay [1], the system named is α7GlyR G175K / A298G mutant chimeric channels. Format: cell-based, human. Particulars: read-out: Agonist potency.
The target of a further assay is T2, 5HT3-R (Homo sapiens, UniProt P46098).
T2 sequence (P46098 24-478): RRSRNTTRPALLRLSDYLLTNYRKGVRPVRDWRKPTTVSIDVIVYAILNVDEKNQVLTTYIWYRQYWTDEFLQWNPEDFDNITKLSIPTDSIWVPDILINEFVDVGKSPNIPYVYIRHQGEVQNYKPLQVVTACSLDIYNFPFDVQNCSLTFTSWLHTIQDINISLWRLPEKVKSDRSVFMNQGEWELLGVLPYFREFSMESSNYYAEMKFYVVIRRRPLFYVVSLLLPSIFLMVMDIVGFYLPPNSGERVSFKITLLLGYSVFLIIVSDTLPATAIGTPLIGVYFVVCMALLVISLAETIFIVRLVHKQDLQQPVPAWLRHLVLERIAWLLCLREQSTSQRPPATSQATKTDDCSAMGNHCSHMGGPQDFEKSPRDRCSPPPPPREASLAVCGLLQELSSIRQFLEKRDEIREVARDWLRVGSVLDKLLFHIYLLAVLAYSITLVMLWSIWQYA
Nature of the assay: Agonist potency at 5HT3-R. Format: cell-based.

The next assay deals with T3, α7^L131A-GlyR (Homo sapiens, UniProt P36544, L131A).
T3 construct: expressed in transfected cells
Format: cell-based. Particulars: over α7-GlyR.

The subject of assay [2] is cortical neurons expressing PSAM^4-5HT3 HC. Nature of the assay: Chemogenetic activation of cortical neurons expressing PSAM^4-5HT3 HC. Format: cell-based, mouse. From the text: FIGS. 12A-12F show chemogenetic perturbation of cortical neuron activity. […] FIG. 12C) Cortical layer 2/3 neuron membrane properties were similar in PSAM^4-GlyR expressing neurons and intermingled untransfected control neurons. […] FIG. 12F) Cortical layer 2/3 neuron membrane properties are similar in PSAM^4-5HT3 HC expressing neurons and intermingled untransfected control neurons. Data are mean±SEM. Mann Whitney U-test, n.s. P>0.05, ***P<0.001.
Chemogenetic perturbation of cortical neuron activity was evaluated. […] Cortical layer 2/3 neuron membrane properties were similar in PSAM^4-GlyR expressing neurons and intermingled untransfected control neurons. […] Cortical layer 2/3 neuron membrane properties are similar in PSAM^4-5HT3 HC expressing neurons and intermingled untransfected control neurons. See, e.g., FIG. 12.

Assay [3] deals with mice expressing PSAM^4-GlyR unilaterally in SNr. Nature of the assay: Unilateral SNr silencing rotation assay. It is filed as in vivo, mouse.
The subject of another assay is α7GABAc W298A (GABAA-ρ). Nature of the assay: Agonist potency at α7GABAc channel with W298A (Table 7). It is filed as cell-based, human. Particulars: a7GABAc Q79G L141F W298A.
For the next assay, the target named is T4, α7^Q79S-5HT3 (Homo sapiens, UniProt P36544, M226I/Q79S/T225I).
T4 construct: expressed in transfected cells; host or cells: HEK cells
Format: cell-based, human α7 nAChR LBD, murine 5HT3 IPD. The settings on record: HEK cells; Table 1.

In another assay the target is T5, α7^Q79G-GlyR (Homo sapiens, UniProt P36544, Q79G).
T5 construct: expressed in transfected cells; host or cells: HEK cells
Format: cell-based. The settings on record: HEK cells; Table 2; read-out: Mean EC50 and SEM in parentheses.

For another assay, the target named is T6, α7-GlyR^A298G (Homo sapiens, UniProt P36544, A298G).
T6 construct: expressed in transfected cells; host or cells: HEK cells
Format: cell-based. Particulars: HEK cells; Table 2; read-out: Mean EC50 and SEM in parentheses.

Another assay addresses T7, α7^Q79A-5HT3 (Homo sapiens, UniProt P36544, M226I/Q79A/T225I).
T7 construct: expressed in transfected cells; host or cells: HEK cells
Format: cell-based, human α7 nAChR LBD, murine 5HT3 IPD. The settings on record: HEK cells; Table 1.

In the next assay the target is α7-5HT3 (Homo sapiens, UniProt P36544, M226I/T225I).
A further assay has as its target T8, α7^Q79G-5HT3 (Homo sapiens, UniProt P36544, M226I/Q79G/T225I).
T8 construct: expressed in transfected cells; host or cells: HEK cells
It is filed as cell-based, human α7 nAChR LBD, murine 5HT3 IPD. The settings on record: HEK cells; Table 1.

A further assay addresses α7-GlyR (Homo sapiens, UniProt P36544).
The target of a further assay is T9, α7^Q79A-GlyR (Homo sapiens, UniProt P36544, Q79A).
T9 construct: expressed in transfected cells; host or cells: HEK cells
Format: cell-based. The settings on record: HEK cells; Table 2; read-out: Mean EC50 and SEM in parentheses.

Assay [4] addresses T10, α4β2 nAChR (Homo sapiens, UniProt P17787+P43681). Nature of the assay: Agonist potency at α4β2 nAChR.
The target of assay [5] is T10, α4β2 nAChR. Format: cell-based. The source says:
FIGS. 14A-14J show ultrapotent chemogenetic agonists (uPSEMs). […] LED: lowest effective dose for mice in SNr rotation assay. Units: nM; parentheses: SEM. Selectivity relative to PSAM^4-GlyR in bold. […] (FIG. 14E) Response amplitude normalized to ACh.

For another assay, the target named is T11, α7GlyR G175K (Homo sapiens, UniProt P36544, G175K).
T11 construct: expressed in transfected cells
Nature of the assay: Agonist potency at chimeric channel. It is filed as cell-based.

For the next assay, the target named is T12, α7GlyR P216I (Homo sapiens, UniProt P36544, P216I).
T12 construct: expressed in transfected cells
Nature of the assay: Agonist potency at chimeric channel. Format: cell-based.

The target of a further assay is T13, α7GlyR W77F Q79G G175K (Homo sapiens, UniProt P36544, G175K/Q79G/W77F).
T13 construct: expressed in transfected cells
Nature of the assay: Agonist potency at chimeric channel. Format: cell-based. Particulars: Table 6.

A further assay addresses T14, α7GlyR Q79G G175K Y115F (Homo sapiens, UniProt P36544, G175K/Q79G/Y115F).
T14 construct: expressed in transfected cells
Nature of the assay: Agonist potency at chimeric channel. The settings on record: Table 6. Format: cell-based.

Where [6] appears, read: α7GlyR Q79G A298G Y115F K395 K396A.

Like-named read-outs stand apart in the source and are kept apart here.

T10 sequence (P43681 29-627 limits assumed): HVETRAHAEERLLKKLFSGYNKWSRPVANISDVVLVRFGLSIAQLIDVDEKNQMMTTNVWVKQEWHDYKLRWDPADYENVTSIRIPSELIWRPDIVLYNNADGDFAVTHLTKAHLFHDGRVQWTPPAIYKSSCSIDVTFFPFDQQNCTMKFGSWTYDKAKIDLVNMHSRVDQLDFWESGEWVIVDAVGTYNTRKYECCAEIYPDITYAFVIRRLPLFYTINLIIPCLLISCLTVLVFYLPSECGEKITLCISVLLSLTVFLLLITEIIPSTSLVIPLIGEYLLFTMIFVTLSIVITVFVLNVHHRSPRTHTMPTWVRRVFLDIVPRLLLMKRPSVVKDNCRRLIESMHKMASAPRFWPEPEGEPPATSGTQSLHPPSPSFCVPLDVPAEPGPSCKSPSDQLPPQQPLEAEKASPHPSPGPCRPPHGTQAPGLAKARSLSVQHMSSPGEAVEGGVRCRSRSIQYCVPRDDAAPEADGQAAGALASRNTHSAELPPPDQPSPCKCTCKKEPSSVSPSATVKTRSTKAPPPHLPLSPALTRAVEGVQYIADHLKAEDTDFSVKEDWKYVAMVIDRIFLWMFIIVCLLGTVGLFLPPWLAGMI
T10 sequence (P17787 26-502): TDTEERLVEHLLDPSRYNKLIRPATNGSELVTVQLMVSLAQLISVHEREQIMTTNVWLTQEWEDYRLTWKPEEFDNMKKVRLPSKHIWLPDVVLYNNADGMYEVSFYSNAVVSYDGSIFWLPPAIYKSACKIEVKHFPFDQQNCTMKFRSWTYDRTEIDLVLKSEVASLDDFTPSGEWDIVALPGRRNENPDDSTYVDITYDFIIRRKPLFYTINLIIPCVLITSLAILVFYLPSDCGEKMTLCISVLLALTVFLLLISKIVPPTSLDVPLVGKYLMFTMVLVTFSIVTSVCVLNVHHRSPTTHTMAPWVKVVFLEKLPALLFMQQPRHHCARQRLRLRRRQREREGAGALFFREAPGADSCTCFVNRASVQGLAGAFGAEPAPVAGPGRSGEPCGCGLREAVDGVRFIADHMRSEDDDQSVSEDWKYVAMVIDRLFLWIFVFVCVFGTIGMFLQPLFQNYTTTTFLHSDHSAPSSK
Sequence of α7-5HT3 (P36544 with tags, fused parts or gaps T225I/M226I limits assumed): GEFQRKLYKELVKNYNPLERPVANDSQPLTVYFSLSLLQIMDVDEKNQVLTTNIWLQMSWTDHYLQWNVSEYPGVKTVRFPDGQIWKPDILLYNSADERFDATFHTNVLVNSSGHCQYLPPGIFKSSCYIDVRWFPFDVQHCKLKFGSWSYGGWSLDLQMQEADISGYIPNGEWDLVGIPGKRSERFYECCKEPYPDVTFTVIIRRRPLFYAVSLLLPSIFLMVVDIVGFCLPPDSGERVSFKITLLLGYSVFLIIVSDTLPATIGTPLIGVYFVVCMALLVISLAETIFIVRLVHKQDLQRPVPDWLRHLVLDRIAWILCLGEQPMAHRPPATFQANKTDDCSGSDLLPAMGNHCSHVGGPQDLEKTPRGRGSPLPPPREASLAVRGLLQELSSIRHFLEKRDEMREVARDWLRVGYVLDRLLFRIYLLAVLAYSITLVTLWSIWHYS
Sequence of α7-GlyR (P36544 with tags, fused parts or gaps): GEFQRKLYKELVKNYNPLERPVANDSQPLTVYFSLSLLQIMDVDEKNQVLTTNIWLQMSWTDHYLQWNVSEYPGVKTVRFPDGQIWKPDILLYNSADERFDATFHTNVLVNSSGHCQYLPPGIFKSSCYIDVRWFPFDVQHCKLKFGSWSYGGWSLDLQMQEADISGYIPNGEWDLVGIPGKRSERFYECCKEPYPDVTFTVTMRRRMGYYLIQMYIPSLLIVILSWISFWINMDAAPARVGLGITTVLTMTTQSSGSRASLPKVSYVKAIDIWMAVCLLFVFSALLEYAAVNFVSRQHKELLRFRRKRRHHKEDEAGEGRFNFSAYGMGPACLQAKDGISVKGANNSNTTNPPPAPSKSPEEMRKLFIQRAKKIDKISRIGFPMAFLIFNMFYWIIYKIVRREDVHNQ
T13 sequence (P36544 with tags, fused parts or gaps W77F/Q79G/G175K): as the sequence (P36544 with tags, fused parts or gaps) above, with W55F, Q57G, G153K counted along it
T14 sequence (P36544 with tags, fused parts or gaps Q79G/Y115F/G175K): as the sequence (P36544 with tags, fused parts or gaps) above, with Q57G, Y93F, G153K counted along it
T3 sequence (P36544 with tags, fused parts or gaps L131A limits assumed): as the sequence (P36544 with tags, fused parts or gaps) above, with L109A counted along it
T11 sequence (P36544 with tags, fused parts or gaps G175K): as the sequence (P36544 with tags, fused parts or gaps) above, with G153K counted along it
T12 sequence (P36544 with tags, fused parts or gaps P216I): as the sequence (P36544 with tags, fused parts or gaps) above, with P194I counted along it
T8 sequence (P36544 with tags, fused parts or gaps Q79G/T225I/M226I limits assumed): as the sequence (P36544 with tags, fused parts or gaps T225I/M226I limits assumed) above, with Q57G counted along it
T6 sequence (P36544 with tags, fused parts or gaps, stated change not applied): as the sequence (P36544 with tags, fused parts or gaps) above, with A276G counted along it
T7 sequence (P36544 with tags, fused parts or gaps Q79A/T225I/M226I limits assumed): as the sequence (P36544 with tags, fused parts or gaps T225I/M226I limits assumed) above, with Q57A counted along it
T1 sequence (P36544 with tags, fused parts or gaps R27D/E41R/T225I/M226I): as the sequence (P36544 with tags, fused parts or gaps T225I/M226I limits assumed) above, with R5D, E19R counted along it
T9 sequence (P36544 with tags, fused parts or gaps Q79A): as the sequence (P36544 with tags, fused parts or gaps) above, with Q57A counted along it
T5 sequence (P36544 with tags, fused parts or gaps Q79G): as the sequence (P36544 with tags, fused parts or gaps) above, with Q57G counted along it
T4 sequence (P36544 with tags, fused parts or gaps Q79S/T225I/M226I limits assumed): as the sequence (P36544 with tags, fused parts or gaps T225I/M226I limits assumed) above, with Q57S counted along it

In the case of `O=C(NC1CN2CCC1CC2)c1ccc(Cl)cc1` (stereo not shown) [PNU-282987], the whole cell responses entry on α7^R21D,E41R-5HT3 is listed as “potent responses”. Further, the EC50 worked out at 9 nM in assay [1] (α7GlyR Q79G A298G G175K Y115F); 250 nM in [1] (α7GlyR Q79G A298G P216I); 110 nM in [1] (setting [6]); 0.36 nM in assay [1] (α7GlyR Q79G G175K A298G); 1630 nM in assay [1] (α7GlyR Q79G W77F A298G); 340 nM in assay [1] (α7GlyR R27D E41R Q79G Y115F).

With `c1cnc2cc3c(cc2n1)[C@@H]1CNC[C@H]3C1` [Varenicline], the EC50 on 5HT3-R (5HT3-R, Table 10) was 1400 nM; with α7GABAc W298A (GABAA-ρ) it was 6.27 µM; in [1] (α7GlyR Q79G A298G G175K Y115F) it was 2370 nM; in assay [1] (setting [6]), above 30000 nM; in [1] (α7GlyR Q79G G175K A298G) it was 22 nM; in assay [1] (α7GlyR Q79G W77F A298G) it was 3660 nM. In [1] (α7GlyR R27D E41R Q79G Y115F), the EC50 is above 30000 nM. For the same compound, the enhanced potency at α7^L131A-GlyR is 8 fold. The “membrane potential and firing” value in assay [2] was “depolarizes and elicits firing”. Moreover, the rotation response entry in [3] (low doses, intraperitoneal, not in sham operated or EGFP-alone mice) is “elicit contraversive rotation”. The “doses at which circling contralateral to the silenced SNr was seen” value in assay [3] (mice) is given as “above 0.1 mpk”. In addition, the “improvement in potency over anti-nicotine activity” value in [3] (mice) amounted to 10 fold. Further, the “tachyphylaxis of the chemogenetic response” value in assay [3] (two doses separated by 5 hours) is given as “no tachyphylaxis”.

For the compound `Cn1cc(C(=O)C(=O)NC2CN3CCC2CC3)c2ccccc21` (stereo not shown) [RS56812], the EC50 at α7^Q79S-5HT3 is 5.7 µM; on α7^Q79G-GlyR it was 2000 nM; on α7-GlyR^A298G, 2300 nM; at α7^Q79A-5HT3, 6.8 µM; at α7-5HT3 (read-out: Mean EC50, HEK cells, Table 1), 10 µM; at α7^Q79G-5HT3, 1400 nM. Moreover, the values for the EC50 on α7-GlyR and on α7^Q79A-GlyR were 6.5 µM and 3.5 µM, respectively.

Regarding `CCCOc1cnc2cc3c(cc2n1)C1CNCC3C1` (stereo not shown) [compound 817], the EC50 on 5HT3-R (read-out: EC50MP) was 1500 ± 1000 nM; at α4β2 nAChR [4] (read-out: EC50MP), above 30 µM; on α7-5HT3 (read-out: EC50MP) it was above 100 µM; at α7-GlyR, above 100 µM. Further, the “α4β2 nAChR agonism” value at α4β2 nAChR [4] was “do not show evident α4β2 nAChR agonism”. In addition, in [3] (SNr silencing rotation assay in mice), the In vivo potency came out at 0.1 mpk. Also, the “effect on α4β2 nAChR” value on α4β2 nAChR [5] is “inhibits”.

`CN1CCCC1c1cccnc1` (stereo not shown) [Nicotine]: the increased potency on α7GlyR G175K is on record as 10 fold; at α7GlyR P216I it was above 4 fold.

In the case of `c1ccc2c(c1)Sc1ccccc1N2CC1CN2CCC1CC2` (stereo not shown) [Mequitazine, reference compound], the EC50 at α7-5HT3 (read-out: Potency, Table 6) is above 30 µM; at α7GlyR W77F Q79G G175K it was 150 nM; at α7GlyR Q79G G175K Y115F it was above 10 µM.
